Key:
GABA receptor = settings: Tallman et al., 1978; cited from earlier work
GABAa receptor = GABAa receptor activity: displacement of 3H-RO15-1788 (3H-Flumazenil) binding in rat cortical tissue homogenate; settings: 3H-RO15-1788 0.5 nM, 30 min at 4° C., pH 7.4, rat cortical tissue
Description: The pharmaceutical utility of compounds of this invention are indicated by the following assay for GABAa receptor activity.
Assays are carried out as described in Thomas and Tallman (J. Bio. Chem. 156: 9838-9842, J. Neurosci. 3: 433-440, 1983). Rat cortical tissue is dissected and homogenized in 25 volumes (w/v) of 0.05M Tris HCl buffer (pH 7.4 at 4° C.). The tissue homogenate is centrifuged in the cold (4°) at 20,000×g for 20'. The supernatant is decanted and the pellet is rehomogenized in the same volume of buffer and again centrifuged at 20,000×g. The supernatant is decanted and the pellet is frozen at -20° C. overnight. The pellet is then thawed and rehomogenized in 25 volume (original wt/vol) of buffer and the procedure is carried out twice. The pellet is finally resuspended in 50 volumes (w/vol of 0.05M Tris HCl buffer (pH 7.4 at […]).
Incubations contain […] of radioligand 0.5 nM (^3 H-RO15-1788 [^3 H-Flumazenil] specific activity 80 Ci/mmol), drug or blocker and buffer to a total volume of […]. Incubations are carried for 30 min at 4° C. then are rapidly filtered through GFB filters to separate free and bound ligand. Filters are washed twice with fresh 0.05M Tris HCl buffer (pH 7.4° at 4° C.) and counted in a liquid scintillation counter. […] diazepam is added to some tubes to determine nonspecific binding. Data are collected in triplicate determinations, averaged and % inhibition of total specific binding is calculated. Total Specific Binding=Total - Nonspecific. In some cases, the amounts of unlabeled drugs is varied and total displacement curves of binding are carried out. Data are converted to a form for the calculation of IC50 and Hill Coefficient (nH).

Row | Structure (SMILES) | blocking of enhancement of benzodiazepine binding by GABA agonists (GABA receptor) | IC50 (GABAa receptor)
1 | CN1CCc2cc3c(cc2[C@H]1[C@@H]1OC(=O)c2c1ccc1c2OCO1)OCO3 [(+) bicuculline] | blocked | –
2 | COc1ccc(-c2ncc3[nH]c4ccccc4c3n2)c(F)c1 [Compound 1, 2-(2-Fluoro-4-methoxyphenyl)-5H-indolo[3,2-d]pyrimidine] | – | 0.0025 µM
3 | Oc1nc(-c2ccccc2)nc2c1[nH]c1ccccc12 [Compound 2, 4-Hydroxy-2-phenyl-5H-indolo[3,2-d]pyrimidine] | – | 0.1 µM
4 | c1ccc(-c2ncc3[nH]c4ccccc4c3n2)cc1 [Compound 4, 2-Phenyl-5H-indolo[3,2-d]pyrimidine] | – | 0.02 µM
5 | CN1CCc2cc3c(cc2[C@@H]1[C@H]1OC(=O)c2c1ccc1c2OCO1)OCO3 [(-) bicuculline] | much less active | –

From patent US5326868A, “Certain aryl fused pyrrolopyrimidines; a new class of GABA brain receptor ligands” (Neurogen Corporation, priority 1993, dated 1994)
